How the values were obtained:
[1] = system: balloon-injured site of the abdominal aorta blood vessel; test: PDT treatment in rabbit model with arterial injury (balloon catheter), pathological study (Example 1); type: in vivo; settings: 2.5 mg/kg i.v., laser 664 nm, 50 or 100 J/cm^2, optical fiber in inflated 2F balloon catheter
Experimental: Mono-L-aspartylchlorin e6 tetrasodium salt (NPe6) was intravenously administered at a dose of 2.5 mg/kg to a rabbit weighing about 4 kg. A commercially available 2F balloon catheter was immediately then inserted through the femoral artery into the abdominal aorta of rabbit. Thereafter, there are repeated operations of drawing out from the blood vessel the balloon catheter with the inflated balloon, inserting the balloon catheter again into the blood vessel, and drawing out the balloon catheter with the inflated balloon, whereby a rabbit model with an arterial injury was produced. This method for producing the rabbit model having the arterial injury at the blood vessel inner wall was in accordance with the method of Hsiang et al. (see Ann. Vasc. Surg., Vol.9, p.80-86, 1995). At the end of 3 hours after the administration of NPe6, an optical fiber for irradiation of laser (made of an acrylic polymer filament having an external diameter of 0.5 mm and provided with the emitter part of 15mm in length) was inserted into the hollow hole of the 2F balloon catheter which had been inserted in and kept remained at the balloon-injured site of the abdominal aorta blood vessel. The balloon of the catheter was then inflated. Laser light of 664 nm wavelength was passed into and transmitted through the optical fiber to make the laser light to irradiate the abdominal artery at the balloon-injured site, and thereby to carry out the PDT treatment of said site at a laser fluence of 50 or 100 J/cm^2. The laser (of the wavelength of 664 nm) used was emitted from a laser-generating source of semi-conductor type known for PDT. At the respective ends of four days, two weeks and four weeks after the above PDT treatment so made, the site having received the PDT treatment was pathologically studied.

[2] = system: intimal thickening induced at the balloon-intervented and injured site of blood vessel; test: Suppressive effect of PDT treatment on intimal thickening in rabbit model with arterial injury, image analysis of neo-intima and tunica media areas (Example 2); type: in vivo; settings: 2.5 mg/kg i.v., laser 664 nm 3 hours after administration, two weeks after PDT; for Inhibition rate (%): versus untreated group
Experimental: Mono-L-aspartylchlorin e6 tetrasodium salt was intravenously administered at a dose of 2.5 mg/kg to three rabbits each weighing about 4 kg. […] The neo-intima (9) had newly been produced from the inner side of the tunica media (8) due to the injury as induced by the balloon-intervention. At the end of three hours after the administration of mono-L-aspartylchlorin e6 tetrasodium salt, a device comprising an optical fiber for the irradiation of laser was inserted in the blood vessel of rabbit having the intimal thickening, to arrive at the balloon-injured site of the blood vessel. In order to estimate in comparison the achievable suppressive effects of the PDT treatments against the vascular restenosis, the above test procedures were conducted with employing two different types of the laser-irradiating devices comprising the optical fiber for the irradiation of laser, a first one type of which two different devices was such a laser-irradiating device that comprised an optical fiber as integrated with a balloon catheter and that is shown in Figure 1 of the appended drawing. The other type of the laser-irradiating device employed was comprising simply the conventional type of cylindrical optical fiber. In the tests, either one of these two different types of the laser-irradiating devices containing an optical fiber was inserted into the abdominal aorta under test. Under roentgenoscopy, an X-ray-shielding marker which had been provided in the laser-irradiating optical fiber so inserted was observed as a guide. This guide was used so that the position of the optical fiber device as inserted could be adjusted so as to be located in a position optimal to make the laser to irradiate selectively just the balloon-injured site of the abdominal aorta under test. Then, the irradiation of the laser through said optical fiber was carried out at a laser fluence of 50 or 100 J/cm^2 by means of a semiconductor generator for generating the laser of a wavelength of 664 nm. […] From the photographies of showing the traverse cross-section of histopathologically stained test specimens as collected from the above PDT-treated site of the blood vessel, the area of the tunica media and the area of the neo-intima of the test specimens of the blood vessel under test were measured by an image analyzer. The ratio of the area of the tunica media to the area of the neo-intima of the blood vessel specimens was calculated. […]

[3] = conventional type of cylindrical optical fiber device, 100 J/cm^2
[4] = optical fiber device integrated with the balloon catheter, 50 J/cm^2

Compound: C=Cc1c(C)c2cc3nc(c(CC(=O)N[C@@H](CC(=O)[O-])C(=O)[O-])c4[nH]c(cc5nc(cc1[nH]2)C(C)=C5CC)c(C)c4C(=O)[O-])[C@@H](CCC(=O)[O-])[C@@H]3C.[Na+].[Na+].[Na+].[Na+] [NPe6, Mono-L-aspartylchlorin e6 tetrasodium salt]
- injuries in the regions of the blood vessel participating in the entire construction of the blood vessel (pathological findings) ([1]; 2 and 4 weeks after PDT): no injuries were developed
- intimal thickening as produced by the vascular neo-intima formed at the PDT-treated site (pathological findings) ([1]; 2 and 4 weeks after PDT): inhibited
- cells of the tunica media of the blood vessel at the PDT-treated site (pathological findings) ([1]; four days after PDT): destroyed in a broad region of ranging from the inner wall side towards the outer wall side of the blood vessel
- Ratio of area of neointima to area of tunica media in blood vessel [2, 3]: 0.87±0.37
- Inhibition rate (%) [2, 3]: 28.7%
- Ratio of area of neointima to area of tunica media in blood vessel [2, 4]: 0.68±0.21
- Inhibition rate (%) [2, 4]: 44.3%
